The values that follow come from the supplement of paper PMC10627819.

What all share (assay): Bliss interaction score (quartile over a dose matrix) (fitness difference); higher = more antagonism (negative = synergy)
The subject of experiment [1] is B. subtilis 168. Summed up:
(§1)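 The Bliss score is observed fitness minus expected fitness, where the expected value is the product of single-drug fitness values inferred from combination data. Fitness is OD595 at entry into stationary phase normalised to the plate's robust no-drug mean and capped at 1. Scores are reported as quartiles spanning technical, biological and donor/recipient replicates.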

Experiment [2] relates to S. aureus DSM 20231. Summed up: as §1
Experiment [3] deals with S. aureus Newman. The procedure, abridged:
as §1

Experiment [4] relates to S. pneumoniae D39V. The procedure, abridged:
as §1

Molecules are shown by their SMILES.
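Also: first quartile when negative (synergy) and third quartile when positive (antagonism).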

As for `CC[C@H](C)[C@H](N)C1=N[C@H](C(=O)N[C@@H](CC(C)C)C(=O)N[C@H](CCC(=O)O)C(=O)N[C@H](C(=O)N[C@H]2CCCCNC(=O)[C@H](CC(N)=O)NC(=O)[C@@H](CC(=O)O)NC(=O)[C@H](Cc3cnc[nH]3)NC(=O)[C@@H](Cc3ccccc3)NC(=O)[C@H]([C@@H](C)CC)NC(=O)[C@@H](CCCN)NC2=O)[C@@H](C)CC)CS1` [Bacitracin] + CO[C@H]1/C=C/O[C@@]2(C)Oc3c(C)c(O)c4c(O)c(c(/C=N/N5CCN(C)CC5)c(O)c4c3C2=O)NC(=O)/C(C)=C\C=C\[C@H](C)[C@H](O)[C@@H](C)[C@@H](O)[C@@H](C)[C@H](OC(C)=O)[C@@H]1C [Rifampicin], the Bliss interaction score was -0.0806 in experiment [1] (main component drawn), 0.0174 in experiment [2] (main component drawn), -0.0236 in experiment [3] (main component drawn) and 0.104 in experiment [4] (main component drawn).
The corresponding values for `CC[C@H](C)[C@H](N)C1=N[C@H](C(=O)N[C@@H](CC(C)C)C(=O)N[C@H](CCC(=O)O)C(=O)N[C@H](C(=O)N[C@H]2CCCCNC(=O)[C@H](CC(N)=O)NC(=O)[C@@H](CC(=O)O)NC(=O)[C@H](Cc3cnc[nH]3)NC(=O)[C@@H](Cc3ccccc3)NC(=O)[C@H]([C@@H](C)CC)NC(=O)[C@@H](CCCN)NC2=O)[C@@H](C)CC)CS1` [Bacitracin] + C[C@@H](O)[C@H]1C(=O)N2C(C(=O)O)=C(SCCNC=N)C[C@H]12 [Imipenem] are -0.359, 0.0207, -0.0113 and -0.0576.
`CC[C@H](C)[C@H](N)C1=N[C@H](C(=O)N[C@@H](CC(C)C)C(=O)N[C@H](CCC(=O)O)C(=O)N[C@H](C(=O)N[C@H]2CCCCNC(=O)[C@H](CC(N)=O)NC(=O)[C@@H](CC(=O)O)NC(=O)[C@H](Cc3cnc[nH]3)NC(=O)[C@@H](Cc3ccccc3)NC(=O)[C@H]([C@@H](C)CC)NC(=O)[C@@H](CCCN)NC2=O)[C@@H](C)CC)CS1` [Bacitracin] + Clc1ccc(COC(Cn2ccnc2)c2ccc(Cl)cc2Cl)c(Cl)c1 [Miconazole]: the Bliss interaction score in experiment [1] (main component drawn) is -0.0878; in experiment [2] (main component drawn), -0.0238; in experiment [3] (main component drawn), -0.0691; in experiment [4] (main component drawn), 0.113.
For `CC[C@H](C)[C@H](N)C1=N[C@H](C(=O)N[C@@H](CC(C)C)C(=O)N[C@H](CCC(=O)O)C(=O)N[C@H](C(=O)N[C@H]2CCCCNC(=O)[C@H](CC(N)=O)NC(=O)[C@@H](CC(=O)O)NC(=O)[C@H](Cc3cnc[nH]3)NC(=O)[C@@H](Cc3ccccc3)NC(=O)[C@H]([C@@H](C)CC)NC(=O)[C@@H](CCCN)NC2=O)[C@@H](C)CC)CS1` [Bacitracin] + N[C@@H]1CONC1=O [CycloserineD], the Bliss interaction score in experiment [1] (main component drawn) is 0.0719; in experiment [2] (main component drawn) it was -0.0841; in experiment [3] (main component drawn) it was 0.0872; in experiment [4] (main component drawn) it was 0.118.
Consider `CC[C@H](C)[C@H](N)C1=N[C@H](C(=O)N[C@@H](CC(C)C)C(=O)N[C@H](CCC(=O)O)C(=O)N[C@H](C(=O)N[C@H]2CCCCNC(=O)[C@H](CC(N)=O)NC(=O)[C@@H](CC(=O)O)NC(=O)[C@H](Cc3cnc[nH]3)NC(=O)[C@@H](Cc3ccccc3)NC(=O)[C@H]([C@@H](C)CC)NC(=O)[C@@H](CCCN)NC2=O)[C@@H](C)CC)CS1` [Bacitracin] + O=C1CN(/N=C/c2ccc([N+](=O)[O-])o2)C(=O)N1 [Nitrofurantoin], for which the Bliss interaction score was -0.192 in experiment [1] (main component drawn), -0.0336 in experiment [2] (main component drawn), 0.0654 in experiment [3] (main component drawn) and -0.0709 in experiment [4] (main component drawn).
As to `CC[C@H](C)[C@H](N)C1=N[C@H](C(=O)N[C@@H](CC(C)C)C(=O)N[C@H](CCC(=O)O)C(=O)N[C@H](C(=O)N[C@H]2CCCCNC(=O)[C@H](CC(N)=O)NC(=O)[C@@H](CC(=O)O)NC(=O)[C@H](Cc3cnc[nH]3)NC(=O)[C@@H](Cc3ccccc3)NC(=O)[C@H]([C@@H](C)CC)NC(=O)[C@@H](CCCN)NC2=O)[C@@H](C)CC)CS1` [Bacitracin] + O=C(O)[C@H]1/C(=C/CO)O[C@@H]2CC(=O)N21 [Clavulanic], the Bliss interaction score in experiment [1] (main component drawn) is 0.107; in experiment [2] (main component drawn) it was -0.0375; in experiment [3] (main component drawn) it was 0.241; in experiment [4] (main component drawn) it was -0.0867.
In the case of `CC[C@H](C)[C@H](N)C1=N[C@H](C(=O)N[C@@H](CC(C)C)C(=O)N[C@H](CCC(=O)O)C(=O)N[C@H](C(=O)N[C@H]2CCCCNC(=O)[C@H](CC(N)=O)NC(=O)[C@@H](CC(=O)O)NC(=O)[C@H](Cc3cnc[nH]3)NC(=O)[C@@H](Cc3ccccc3)NC(=O)[C@H]([C@@H](C)CC)NC(=O)[C@@H](CCCN)NC2=O)[C@@H](C)CC)CS1` [Bacitracin] + Oc1cc(Cl)ccc1Oc1ccc(Cl)cc1Cl [Triclosan], the Bliss interaction score in experiment [1] (main component drawn) was -0.136; in experiment [2] (main component drawn) it was 0.0303; in experiment [3] (main component drawn), -0.0148; in experiment [4] (main component drawn), 0.056.
`CC[C@H]1OC(=O)[C@H](C)[C@@H](O[C@H]2C[C@@](C)(OC)[C@@H](O)[C@H](C)O2)[C@H](C)[C@@H](O[C@@H]2O[C@H](C)C[C@H](N(C)C)[C@H]2O)[C@](C)(O)C[C@@H](C)C(=O)[C@H](C)[C@@H](O)[C@]1(C)O` [Erythromycin] + C/C(=C\C(=O)OCCCCCCCCC(=O)O)C[C@@H]1OC[C@H](C[C@@H]2O[C@H]2[C@@H](C)[C@H](C)O)[C@@H](O)[C@H]1O [Pseudomonic acid]: the Bliss interaction score in experiment [1] was 0.0626; in experiment [2] it was -0.0124; in experiment [3], -0.0171; in experiment [4], 0.0664.
`CC[C@H]1OC(=O)[C@H](C)[C@@H](O[C@H]2C[C@@](C)(OC)[C@@H](O)[C@H](C)O2)[C@H](C)[C@@H](O[C@@H]2O[C@H](C)C[C@H](N(C)C)[C@H]2O)[C@](C)(O)C[C@@H](C)C(=O)[C@H](C)[C@@H](O)[C@]1(C)O` [Erythromycin] + CC1(C)S[C@@H]2[C@H](NC(=O)Cc3ccccc3)C(=O)N2[C@H]1C(=O)O [PenicillinG]: the Bliss interaction score was 0.0463 in experiment [1], 0.0265 in experiment [2], -0.0654 in experiment [3] and -0.0381 in experiment [4].
